# Source: US20260224588A1, “BENZODIAZEPINONE-DERIVED INHIBITORS OF EGFR AND HER2” (The Research Foundation for the State University of New York, priority 2023, published 2026)
# What was measured:
# Assay in all cases: KINOMEscan
# Assay type in all cases: binding
# Settings in all cases: 1 μM of compound 4; read-out: POC
# [1] = target: T1, ABL1(H396P)-nonphosphorylated (Homo sapiens, UniProt P00519, H396P)
# T1 construct: purchased Eurofins DiscoverX Corporation
# [2] = target: T2, ABL1(Q252H)-nonphosphorylated (Homo sapiens, UniProt P00519, Q252H)
# T2 construct: purchased Eurofins DiscoverX Corporation
# [3] = target: BMPR2 (Homo sapiens, UniProt Q13873)
# [4] = target: BTK (Homo sapiens, UniProt Q06187)
# [5] = target: CAMK1G (Homo sapiens, UniProt Q96NX5)
# [6] = target: CDK4-cyclinD1 (Homo sapiens, UniProt P11802)
# [7] = target: CDK8 (Homo sapiens, UniProt P49336)
# [8] = target: CSK (Homo sapiens, UniProt P41240)
# [9] = target: CSNK1A1 (Homo sapiens, UniProt P48729)
# [10] = target: CSNK1D (Homo sapiens, UniProt P48730)
# [11] = target: CSNK1G1 (Homo sapiens, UniProt Q9HCP0)
# [12] = target: DAPK3 (Homo sapiens, UniProt O43293)
# [13] = target: DDR2 (Homo sapiens, UniProt Q16832)
# [14] = target: DYRK2 (Homo sapiens, UniProt Q92630)
# [15] = target: T3, EGFR(G719C) (Homo sapiens, UniProt P00533, G719C)
# T3 construct: purchased Eurofins DiscoverX (KINOMEscan service)
# [16] = target: T4, EGFR(L747-S752del + P753S) (Homo sapiens, UniProt P00533, DEL747-752/P753S)
# T4 construct: purchased Eurofins DiscoverX (KINOMEscan service)
# [17] = target: T5, EIF2AK1 (Homo sapiens, UniProt Q9BQI3)
# T5 construct: purchased Eurofins DiscoverX (KINOMEscan service)
# [18] = target: T6, EPHA1 (Homo sapiens, UniProt P21709)
# T6 construct: purchased Eurofins DiscoverX (KINOMEscan service)
# [19] = target: T7, FLT3 (Homo sapiens, UniProt P36888)
# T7 construct: purchased Eurofins DiscoverX Corporation
# [20] = target: MAP3K4 (Homo sapiens, UniProt Q9Y6R4)
# [21] = target: MLK1 (Homo sapiens, UniProt P80192)
# [22] = target: MRCKA (Homo sapiens, UniProt Q5VT25)
# [23] = target: MYLK4 (Homo sapiens, UniProt Q86YV6)
# [24] = target: NDR1 (Homo sapiens, UniProt Q15208)
# [25] = target: PIK3CA (Homo sapiens, UniProt P42336)
# [26] = target: PIM1 (Homo sapiens, UniProt P11309)
# [27] = target: PRKCQ (Homo sapiens, UniProt Q04759)
# [28] = target: T8, RET(V804M) (Homo sapiens, UniProt P07949, V804M)
# T8 construct: purchased Eurofins DiscoverX Corporation (KINOMEscan screening service)
# [29] = target: T9, RIPK4 (Homo sapiens, UniProt P57078)
# T9 construct: purchased Eurofins DiscoverX Corporation (KINOMEscan screening service)
# [30] = target: T10, RPS6KA5(Kin.Dom.2-C-terminal) (Homo sapiens, UniProt O75582)
# T10 construct: RPS6KA5(Kin.Dom.2-C-terminal); purchased Eurofins DiscoverX Corporation (KINOMEscan screening service)
# [31] = target: T11, SNARK (Homo sapiens, UniProt Q9H093)
# T11 construct: purchased Eurofins DiscoverX (KINOMEscan service)
# [32] = target: T12, SRPK3 (Homo sapiens, UniProt Q9UPE1)
# T12 construct: purchased Eurofins DiscoverX (KINOMEscan service)
# [33] = target: T13, TAOK3 (Homo sapiens, UniProt Q9H2K8)
# T13 construct: purchased Eurofins DiscoverX Corporation
# [34] = target: T14, TLK1 (Homo sapiens, UniProt Q9UKI8)
# T14 construct: purchased Eurofins DiscoverX Corporation
# [35] = target: T15, TNK2 (Homo sapiens, UniProt Q07912)
# T15 construct: purchased Eurofins DiscoverX Corporation
# [36] = target: T16, VPS34 (Homo sapiens, UniProt Q8NEB9)
# T16 construct: purchased Eurofins DiscoverX
# [37] = target: T17, WEE1 (Homo sapiens, UniProt P30291)
# T17 construct: purchased Eurofins DiscoverX
# [38] = target: T18, WNK3 (Homo sapiens, UniProt Q9BYP7)
# T18 construct: purchased Eurofins DiscoverX
# T18 sequence (Q9BYP7 whole entry): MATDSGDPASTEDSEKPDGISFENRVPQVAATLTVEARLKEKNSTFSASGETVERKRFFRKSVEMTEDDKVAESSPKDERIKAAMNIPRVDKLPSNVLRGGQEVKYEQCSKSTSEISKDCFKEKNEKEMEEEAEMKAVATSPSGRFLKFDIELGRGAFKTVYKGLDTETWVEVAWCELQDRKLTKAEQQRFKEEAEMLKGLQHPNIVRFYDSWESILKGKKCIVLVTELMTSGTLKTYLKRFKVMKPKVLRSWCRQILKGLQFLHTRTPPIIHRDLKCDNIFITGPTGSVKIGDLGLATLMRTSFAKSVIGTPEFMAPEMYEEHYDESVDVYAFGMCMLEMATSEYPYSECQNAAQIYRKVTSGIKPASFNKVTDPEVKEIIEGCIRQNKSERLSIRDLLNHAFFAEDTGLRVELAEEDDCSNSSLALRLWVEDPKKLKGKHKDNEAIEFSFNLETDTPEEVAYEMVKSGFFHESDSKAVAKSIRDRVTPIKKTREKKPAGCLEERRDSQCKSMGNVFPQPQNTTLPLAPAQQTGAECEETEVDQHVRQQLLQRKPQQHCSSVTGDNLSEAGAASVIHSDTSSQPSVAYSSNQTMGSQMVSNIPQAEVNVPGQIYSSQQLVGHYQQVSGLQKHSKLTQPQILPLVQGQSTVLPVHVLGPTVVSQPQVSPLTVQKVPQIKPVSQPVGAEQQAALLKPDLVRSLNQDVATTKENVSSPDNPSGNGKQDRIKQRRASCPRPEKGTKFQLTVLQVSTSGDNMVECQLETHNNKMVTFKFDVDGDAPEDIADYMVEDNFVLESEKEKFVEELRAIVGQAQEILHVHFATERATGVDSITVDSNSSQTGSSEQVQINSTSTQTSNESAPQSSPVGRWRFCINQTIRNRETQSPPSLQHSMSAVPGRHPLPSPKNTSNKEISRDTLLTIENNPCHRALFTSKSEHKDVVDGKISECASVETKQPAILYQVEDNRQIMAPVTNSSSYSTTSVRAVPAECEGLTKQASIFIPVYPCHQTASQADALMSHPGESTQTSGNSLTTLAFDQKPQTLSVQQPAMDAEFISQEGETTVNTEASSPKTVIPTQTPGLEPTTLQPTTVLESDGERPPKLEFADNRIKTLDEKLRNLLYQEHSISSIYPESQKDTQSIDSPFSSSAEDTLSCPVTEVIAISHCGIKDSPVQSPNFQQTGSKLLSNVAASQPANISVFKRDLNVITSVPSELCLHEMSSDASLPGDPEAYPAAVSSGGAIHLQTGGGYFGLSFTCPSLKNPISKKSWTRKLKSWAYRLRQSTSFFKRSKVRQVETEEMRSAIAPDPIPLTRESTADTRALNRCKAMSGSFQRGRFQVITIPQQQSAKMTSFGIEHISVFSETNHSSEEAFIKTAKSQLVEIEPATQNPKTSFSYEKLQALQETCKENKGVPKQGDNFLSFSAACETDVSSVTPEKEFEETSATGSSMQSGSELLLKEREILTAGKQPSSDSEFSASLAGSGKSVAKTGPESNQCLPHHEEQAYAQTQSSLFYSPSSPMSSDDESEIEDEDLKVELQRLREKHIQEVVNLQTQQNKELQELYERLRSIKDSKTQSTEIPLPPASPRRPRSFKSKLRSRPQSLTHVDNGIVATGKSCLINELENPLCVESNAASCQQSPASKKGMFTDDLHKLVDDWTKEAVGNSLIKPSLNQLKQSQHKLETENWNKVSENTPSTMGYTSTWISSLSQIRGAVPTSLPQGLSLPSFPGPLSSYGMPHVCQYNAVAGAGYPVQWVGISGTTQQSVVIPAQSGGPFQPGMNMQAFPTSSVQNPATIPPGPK
# Chain of MYLK4 (Q86YV6 whole entry): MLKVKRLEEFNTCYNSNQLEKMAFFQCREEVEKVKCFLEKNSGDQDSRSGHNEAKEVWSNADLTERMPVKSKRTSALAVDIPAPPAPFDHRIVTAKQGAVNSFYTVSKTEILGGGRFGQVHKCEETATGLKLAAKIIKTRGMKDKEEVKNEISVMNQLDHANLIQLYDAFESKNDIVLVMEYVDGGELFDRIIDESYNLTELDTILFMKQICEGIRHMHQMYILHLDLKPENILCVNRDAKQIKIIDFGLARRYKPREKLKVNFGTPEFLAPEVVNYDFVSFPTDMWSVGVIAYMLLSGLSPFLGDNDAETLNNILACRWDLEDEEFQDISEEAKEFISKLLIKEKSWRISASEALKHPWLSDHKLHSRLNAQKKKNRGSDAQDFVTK
# Chain of CDK4-cyclinD1 (P11802 whole entry): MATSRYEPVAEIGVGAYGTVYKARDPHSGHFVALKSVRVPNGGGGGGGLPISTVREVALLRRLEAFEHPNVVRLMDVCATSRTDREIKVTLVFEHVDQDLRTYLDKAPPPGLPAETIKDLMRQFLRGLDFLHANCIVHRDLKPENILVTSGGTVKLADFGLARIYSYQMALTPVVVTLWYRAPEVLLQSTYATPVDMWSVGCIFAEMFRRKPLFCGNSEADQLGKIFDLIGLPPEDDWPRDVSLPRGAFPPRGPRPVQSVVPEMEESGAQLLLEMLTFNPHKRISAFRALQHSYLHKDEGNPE
# Chain of CDK4-cyclinD1 (P24385 whole entry partner): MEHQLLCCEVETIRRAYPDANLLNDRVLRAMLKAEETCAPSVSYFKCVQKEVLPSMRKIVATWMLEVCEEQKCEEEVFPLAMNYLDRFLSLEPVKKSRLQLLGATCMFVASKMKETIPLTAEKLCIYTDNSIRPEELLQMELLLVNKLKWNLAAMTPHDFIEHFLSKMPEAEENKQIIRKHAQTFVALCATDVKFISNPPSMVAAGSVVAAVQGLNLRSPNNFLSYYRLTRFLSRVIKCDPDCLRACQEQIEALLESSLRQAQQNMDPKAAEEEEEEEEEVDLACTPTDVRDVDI
# Chain of BMPR2 (Q13873 27-1038): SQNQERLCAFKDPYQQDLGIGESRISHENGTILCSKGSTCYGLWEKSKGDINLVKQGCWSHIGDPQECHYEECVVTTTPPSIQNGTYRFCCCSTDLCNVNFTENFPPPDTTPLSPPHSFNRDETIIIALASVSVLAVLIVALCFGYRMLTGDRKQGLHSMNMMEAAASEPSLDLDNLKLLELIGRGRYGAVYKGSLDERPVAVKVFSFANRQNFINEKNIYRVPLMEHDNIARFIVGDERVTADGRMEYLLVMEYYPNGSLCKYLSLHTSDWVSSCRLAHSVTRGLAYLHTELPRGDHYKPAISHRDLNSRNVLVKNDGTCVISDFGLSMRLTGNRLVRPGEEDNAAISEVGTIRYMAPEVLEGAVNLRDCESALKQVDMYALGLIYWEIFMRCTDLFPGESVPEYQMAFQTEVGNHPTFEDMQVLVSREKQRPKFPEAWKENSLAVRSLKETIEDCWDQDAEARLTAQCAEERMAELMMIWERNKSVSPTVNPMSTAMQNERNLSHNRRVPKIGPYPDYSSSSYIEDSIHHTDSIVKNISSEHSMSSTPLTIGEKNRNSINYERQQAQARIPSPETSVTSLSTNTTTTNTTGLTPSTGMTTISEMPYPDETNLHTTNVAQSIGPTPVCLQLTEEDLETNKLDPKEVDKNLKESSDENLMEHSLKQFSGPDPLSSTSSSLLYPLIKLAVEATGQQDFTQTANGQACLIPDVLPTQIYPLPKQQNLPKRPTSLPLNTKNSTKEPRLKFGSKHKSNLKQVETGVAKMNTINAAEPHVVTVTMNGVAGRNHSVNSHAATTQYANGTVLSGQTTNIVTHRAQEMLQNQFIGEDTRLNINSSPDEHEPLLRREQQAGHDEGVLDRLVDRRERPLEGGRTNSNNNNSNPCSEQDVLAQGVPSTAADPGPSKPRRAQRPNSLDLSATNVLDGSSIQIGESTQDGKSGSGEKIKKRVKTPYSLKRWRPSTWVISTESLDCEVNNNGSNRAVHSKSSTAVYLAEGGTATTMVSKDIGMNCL
# Chain of BTK (Q06187 whole entry): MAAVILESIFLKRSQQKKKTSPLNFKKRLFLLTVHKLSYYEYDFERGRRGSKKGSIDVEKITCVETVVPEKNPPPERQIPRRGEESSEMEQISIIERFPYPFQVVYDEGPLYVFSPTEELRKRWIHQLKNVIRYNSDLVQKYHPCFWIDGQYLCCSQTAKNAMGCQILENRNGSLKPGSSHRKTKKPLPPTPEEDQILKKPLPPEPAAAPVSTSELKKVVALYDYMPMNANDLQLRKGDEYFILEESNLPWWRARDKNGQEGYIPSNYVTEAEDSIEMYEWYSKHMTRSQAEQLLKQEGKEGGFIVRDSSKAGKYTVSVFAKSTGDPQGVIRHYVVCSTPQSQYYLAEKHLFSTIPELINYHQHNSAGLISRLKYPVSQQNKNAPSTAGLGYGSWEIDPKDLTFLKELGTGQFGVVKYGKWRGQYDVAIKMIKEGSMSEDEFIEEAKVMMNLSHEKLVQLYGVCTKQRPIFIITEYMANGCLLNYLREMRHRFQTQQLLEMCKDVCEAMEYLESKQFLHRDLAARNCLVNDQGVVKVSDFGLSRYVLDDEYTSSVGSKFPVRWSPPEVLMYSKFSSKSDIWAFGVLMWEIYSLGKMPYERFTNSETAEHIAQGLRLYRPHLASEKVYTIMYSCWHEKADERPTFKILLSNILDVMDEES
# Chain of PIM1 (P11309 whole entry): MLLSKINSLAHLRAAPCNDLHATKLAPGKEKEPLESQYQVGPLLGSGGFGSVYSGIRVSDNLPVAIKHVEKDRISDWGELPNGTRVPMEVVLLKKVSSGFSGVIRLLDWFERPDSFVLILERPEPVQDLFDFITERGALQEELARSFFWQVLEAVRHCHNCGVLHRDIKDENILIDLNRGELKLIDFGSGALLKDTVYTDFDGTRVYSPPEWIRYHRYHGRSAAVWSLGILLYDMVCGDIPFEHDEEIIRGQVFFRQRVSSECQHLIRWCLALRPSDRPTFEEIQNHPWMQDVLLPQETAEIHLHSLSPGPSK
# T10 sequence (O75582 426-687 limits assumed): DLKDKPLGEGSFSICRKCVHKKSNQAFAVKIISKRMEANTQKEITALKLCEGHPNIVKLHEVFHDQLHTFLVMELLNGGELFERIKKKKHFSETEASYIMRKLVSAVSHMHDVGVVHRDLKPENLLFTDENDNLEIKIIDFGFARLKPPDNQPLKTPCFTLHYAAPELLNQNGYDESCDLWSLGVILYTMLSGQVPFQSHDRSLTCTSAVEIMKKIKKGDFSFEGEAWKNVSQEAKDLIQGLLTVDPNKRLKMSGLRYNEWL
smiles,measurement,setting,value
"C=CC(=O)Nc1ccc(OC)c(Nc2cc(-c3[nH]c(CC)nc3-c3cccc(NC(=O)c4cccc5c4NC(=O)c4ccccc4N5)c3)ccn2)c1 [Compound 4, N-(3-(5-(2-((5-Acrylamido-2-methoxyphenyl)amino)pyridin-4-yl)-2-ethyl-1H-imidazol-4-yl)phenyl)-11-oxo-10,11-dihydro-5H-dibenzo[b,e][1,4]diazepine-9-carboxamide]",remaining binding at 1 µM,[1],97%
same,remaining binding at 1 µM,[2],100%
same,remaining binding at 1 µM,[3],88%
same,remaining binding at 1 µM,[4],54%
same,remaining binding at 1 µM,[5],100%
same,remaining binding at 1 µM,[6],94%
same,remaining binding at 1 µM,[7],81%
same,remaining binding at 1 µM,[8],14%
same,remaining binding at 1 µM,[9],56%
same,remaining binding at 1 µM,[10],87%
same,remaining binding at 1 µM,[11],93%
same,remaining binding at 1 µM,[12],62%
same,remaining binding at 1 µM,[13],100%
same,remaining binding at 1 µM,[14],75%
same,remaining binding at 1 µM,[15],6.5%
same,remaining binding at 1 µM,[16],16%
same,remaining binding at 1 µM,[17],75%
same,remaining binding at 1 µM,[18],100%
same,remaining binding at 1 µM,[19],100%
same,remaining binding at 1 µM,[20],100%
same,remaining binding at 1 µM,[21],86%
same,remaining binding at 1 µM,[22],0%
same,remaining binding at 1 µM,[23],95%
same,remaining binding at 1 µM,[24],73%
same,remaining binding at 1 µM,[25],70%
same,remaining binding at 1 µM,[26],94%
same,remaining binding at 1 µM,[27],18%
same,remaining binding at 1 µM,[28],91%
same,remaining binding at 1 µM,[29],100%
same,remaining binding at 1 µM,[30],100%
same,remaining binding at 1 µM,[31],100%
same,remaining binding at 1 µM,[32],100%
same,remaining binding at 1 µM,[33],95%
same,remaining binding at 1 µM,[34],87%
same,remaining binding at 1 µM,[35],3.8%
same,remaining binding at 1 µM,[36],84%
same,remaining binding at 1 µM,[37],85%
same,remaining binding at 1 µM,[38],78%
